Data reported in ChEMBL document CHEMBL4196206, “Aturanosides A and B, Glycosylated Anthraquinones with Antiangiogenic Activity from a Soil-Derived Streptomyces Species” (J Nat Prod, 2018).
Active and inactive are the calls of the source. No cut-off for these calls is given here.

What was measured:
HUVEC [1] = assay: Antiangiogenic activity in HUVEC assessed as inhibition of VEGF-induced capillary tube formation by matrigel-based microscopic analysis; assay type: functional, cell-based; details: Homo sapiens
HUVEC [2] = assay: Antiinvasive activity in HUVEC assessed as inhibition of VEGF-induced cell invasion by crystal violet staining based matrigel invasion chamber assay; assay type: functional; details: Homo sapiens
HUVEC [3] = assay: Down regulation of VE-cadherin expression in VEGF-stimulated HUVEC after 6 hrs by Western blot analysis; assay type: functional, cell-based; details: Homo sapiens
[4] = target: Vascular endothelial growth factor receptor 2 (Homo sapiens) (UniProt P35968); assay: Inhibition of VEGFR2 phosphorylation in VEGF-stimulated HUVEC after 6 hrs by Western blot analysis; assay type: cell-based
[5] = target: Vascular endothelial growth factor receptor 2 (Homo sapiens) (UniProt P35968); assay: Inhibition of VEGFR2 phosphorylation in VEGF-stimulated HUVEC at 10 to 50 uM after 6 hrs by Western blot analysis; assay type: cell-based
HUVEC [6] = assay: Cytotoxicity against VEGF-stimulated HUVEC at 100 uM after 24 hrs by EZ-Cytox cell viability assay; assay type: cell-based; details: human
HUVEC [7] = assay: Antiinvasive activity in HUVEC assessed as inhibition of VEGF-induced cell invasion at 25 uM by crystal violet staining based matrigel invasion chamber assay; assay type: functional; details: Homo sapiens
HUVEC [8] = assay: Down regulation of VE-cadherin expression in VEGF-stimulated HUVEC at 10 to 50 uM after 6 hrs by Western blot analysis; assay type: functional, cell-based; details: Homo sapiens

Vascular endothelial growth factor receptor 2 (Homo sapiens), sequence (P35968 whole entry): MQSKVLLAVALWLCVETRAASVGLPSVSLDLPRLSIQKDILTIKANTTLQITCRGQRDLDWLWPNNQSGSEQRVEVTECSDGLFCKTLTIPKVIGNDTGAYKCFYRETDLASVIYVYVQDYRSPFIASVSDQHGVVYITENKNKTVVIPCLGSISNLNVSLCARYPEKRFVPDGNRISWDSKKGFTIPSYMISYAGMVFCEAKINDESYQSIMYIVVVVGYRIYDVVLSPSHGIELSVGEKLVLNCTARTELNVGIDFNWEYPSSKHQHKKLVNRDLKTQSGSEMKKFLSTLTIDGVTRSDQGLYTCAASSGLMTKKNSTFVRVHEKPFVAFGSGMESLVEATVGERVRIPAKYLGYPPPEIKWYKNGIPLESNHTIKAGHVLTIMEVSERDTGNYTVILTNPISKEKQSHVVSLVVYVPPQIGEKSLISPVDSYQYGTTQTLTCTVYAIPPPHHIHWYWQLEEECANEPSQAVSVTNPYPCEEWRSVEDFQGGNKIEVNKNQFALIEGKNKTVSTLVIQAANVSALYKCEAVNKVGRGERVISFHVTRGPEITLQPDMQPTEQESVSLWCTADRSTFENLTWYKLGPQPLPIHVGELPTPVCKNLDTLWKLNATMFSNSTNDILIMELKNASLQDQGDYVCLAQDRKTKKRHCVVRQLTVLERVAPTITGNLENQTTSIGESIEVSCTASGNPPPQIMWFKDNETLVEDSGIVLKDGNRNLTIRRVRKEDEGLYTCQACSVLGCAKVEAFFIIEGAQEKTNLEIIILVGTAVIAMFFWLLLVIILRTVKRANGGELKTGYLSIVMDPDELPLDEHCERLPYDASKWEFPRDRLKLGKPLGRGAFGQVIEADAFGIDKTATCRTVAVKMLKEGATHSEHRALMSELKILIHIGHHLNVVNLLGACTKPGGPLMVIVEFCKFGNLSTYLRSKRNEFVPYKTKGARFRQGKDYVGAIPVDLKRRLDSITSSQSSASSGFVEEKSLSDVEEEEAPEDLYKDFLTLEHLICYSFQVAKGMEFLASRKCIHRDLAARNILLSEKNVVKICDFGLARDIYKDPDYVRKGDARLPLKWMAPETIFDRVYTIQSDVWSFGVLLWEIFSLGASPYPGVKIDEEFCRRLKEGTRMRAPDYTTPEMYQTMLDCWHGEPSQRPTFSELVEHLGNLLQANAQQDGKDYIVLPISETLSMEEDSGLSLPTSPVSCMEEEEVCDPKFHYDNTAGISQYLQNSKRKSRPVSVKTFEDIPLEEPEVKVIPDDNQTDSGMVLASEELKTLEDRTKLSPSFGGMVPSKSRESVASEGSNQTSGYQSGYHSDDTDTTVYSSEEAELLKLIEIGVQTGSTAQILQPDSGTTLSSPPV

For `CCCc1c(C(=O)O)c(O)cc2c1C(=O)c1c(O)cc(O)cc1C2=O`, the inhibition (HUVEC [1]) was “inactive”, the inhibition (HUVEC [2]) was “inactive” and the Activity (HUVEC [3]) was “inactive”. The inhibition [4] was “inactive”.
For `CCCc1cc(O[C@@H]2O[C@@H](C)[C@H](O)[C@@H](O)[C@H]2O)cc2c1C(=O)c1c(O)cc(O)cc1C2=O`, the inhibition (HUVEC [1]) was “Dose-dependent effect”, the inhibition [5] was “Active” and the Activity (HUVEC [6]) was “Non-Toxic”. For the same compound, the inhibition (HUVEC [7]) was “Active” and the Activity (HUVEC [8]) was “Active”.
For `CCCc1cc(O[C@@H]2O[C@@H](C)[C@H](O)[C@@H](O)[C@H]2OC2O[C@H](CO)[C@@H](O)[C@H](O)[C@H]2NC(C)=O)cc2c1C(=O)c1c(O)cc(O)cc1C2=O` (some centres undefined), the inhibition (HUVEC [1]) was “Dose-dependent effect”, the inhibition [5] was “Active” and the Activity (HUVEC [6]) was “Non-Toxic”. The inhibition (HUVEC [7]) was “Active” and the Activity (HUVEC [8]) was “Active”.
